ChEMBL document CHEMBL4251684, “Trichodermides A-E: New Peptaibols Isolated from the Australian Termite Nest-Derived Fungus Trichoderma virens CMB-TN16” (J Nat Prod, 2018)
Activity calls are given as the source filed them. The calls are words filed in the database; no cut-off is given here.

Tests used:
Escherichia coli = test: Antimicrobial activity against Escherichia coli ATCC 11775 after 24 hrs by spectrophotometric method; assay type: functional, organism-based; details: DSM 30083 = JCM 1649 = ATCC 11775
Pseudomonas aeruginosa = test: Antimicrobial activity against Pseudomonas aeruginosa ATCC 10145 after 24 hrs by spectrophotometric method; assay type: functional, organism-based
Bacillus subtilis = test: Antimicrobial activity against Bacillus subtilis ATCC 6051 after 24 hrs by spectrophotometric method; assay type: functional, organism-based
Staphylococcus aureus = test: Antimicrobial activity against Staphylococcus aureus ATCC 25923 after 24 hrs by spectrophotometric method; assay type: functional, organism-based
Candida albicans = test: Antimicrobial activity against Candida albicans ATCC 10231 after 24 hrs by spectrophotometric method; assay type: functional, organism-based
Candida parapsilosis = test: Antimicrobial activity against Candida parapsilosis ATCC 22019 after 24 hrs by spectrophotometric method; assay type: functional, organism-based
Pichia kudriavzevii = test: Antimicrobial activity against Candida krusei ATCC 6258 after 24 hrs by spectrophotometric method; assay type: functional, organism-based
NCI-H460 = test: Cytotoxicity against human NCI-H460 cells assessed as inhibition of cell growth after 48 hrs by MTT assay; assay type: cell-based; details: NCI-H460, 48 h
SW-620 = test: Cytotoxicity against human SW620 cells assessed as inhibition of cell growth after 48 hrs by MTT assay; assay type: cell-based; details: SW-620, 48 h

| SMILES | Activity (Escherichia coli) | Activity (Pseudomonas aeruginosa) | Activity (Bacillus subtilis) | Activity (Staphylococcus aureus) | Activity (Candida albicans) | Activity (Candida parapsilosis) | Activity (Pichia kudriavzevii) | IC50 (NCI-H460) [µM] | IC50 (SW-620) [µM] |
| --- | --- | --- | --- | --- | --- | --- | --- | --- | --- |
| CC[C@@H](C)[C@H](NC(=O)[C@H](CCC(N)=O)NC(=O)[C@@](C)(CC)NC(C)=O)C(=O)N[C@H](C(=O)NC(C)(C)C(=O)N1CCC[C@H]1C(=O)N[C@H](C(=O)N[C@@H](CC(C)C)C(=O)NC(C)(C)C(=O)N1CCC[C@H]1C(=O)N[C@H](CO)CC(C)C)[C@@H](C)CC)C(C)C | inactive | inactive | inactive | inactive | inactive | inactive | inactive | 10.9 | 12.8 |
| CC[C@H](C)[C@H](NC(=O)[C@@H]1CCCN1C(=O)C(C)(C)NC(=O)[C@@H](NC(=O)[C@@H](NC(=O)[C@H](CCC(N)=O)NC(=O)[C@@](C)(CC)NC(C)=O)C(C)C)C(C)C)C(=O)N[C@@H](CC(C)C)C(=O)NC(C)(C)C(=O)N1CCC[C@H]1C(=O)N[C@H](CO)C(C)C | inactive | inactive | inactive | inactive | inactive | inactive | inactive | > 30 | 27.5 |
| CC[C@@H](C)[C@H](NC(=O)[C@H](CCC(N)=O)NC(=O)C(C)(C)NC(C)=O)C(=O)N[C@H](C(=O)NC(C)(C)C(=O)N1CCC[C@H]1C(=O)N[C@H](C(=O)N[C@@H](CC(C)C)C(=O)NC(C)(C)C(=O)N1CCC[C@H]1C(=O)N[C@H](CO)C(C)C)[C@@H](C)CC)C(C)C | inactive | inactive | inactive | inactive | inactive | inactive | inactive | > 30 | > 30 |
| CC[C@@H](C)[C@H](NC(=O)[C@H](CCC(N)=O)NC(=O)C(C)(C)NC(C)=O)C(=O)N[C@H](C(=O)NC(C)(C)C(=O)N1CCC[C@H]1C(=O)N[C@H](C(=O)N[C@@H](CC(C)C)C(=O)NC(C)(C)C(=O)N1CCC[C@H]1C(=O)N[C@H](CO)CC(C)C)[C@@H](C)CC)C(C)C | inactive | inactive | inactive | inactive | inactive | inactive | inactive | > 30 | > 30 |
| CC[C@@H](C)[C@H](NC(=O)[C@H](CCC(N)=O)NC(=O)[C@@](C)(CC)NC(C)=O)C(=O)N[C@H](C(=O)NC(C)(C)C(=O)N1CCC[C@H]1C(=O)N[C@H](C(=O)N[C@@H](CC(C)C)C(=O)NC(C)(C)C(=O)N1CCC[C@H]1C(=O)N[C@H](CO)C(C)C)[C@@H](C)CC)C(C)C | inactive | inactive | inactive | inactive | inactive | inactive | inactive | 19.3 | 18.9 |
